Assay [1] has as its target cortisol synthase (CYP11B1) (Macaca fascicularis, UniProt A0A2K5ULY1). As to the kind of experiment: Inhibition of cortisol synthesis, cynomolgus adrenal mitochondria, 11-deoxycortisol as substrate. The class given is biochemical, cynomolgus monkey. Particulars: 150 units of CYP11B1, 11-deoxycortisol as substrate. As for the experimental part: The aldosterone synthase and cortisol synthase inhibition assays employ cynomolgus adrenal gland mitochondria as the source of aldosterone synthase (CYP11B2) and cortisol synthase (CYP11B1). Mitochondria are prepared from frozen cynomolgus monkey adrenal glands according to Method A described in by J. D. McGarry et al. (Biochem. J., 1983, 214, 21-28), with a final resuspension in the AT buffer described in R. Yamaguchi et al. (Cell Death and Differentiation, 2007, 14, 616-624), frozen as aliquots in liquid nitrogen and stored at −80° C. until use. One unit of CYP11B2 and CYP11B1 activity in these preparations is defined as the amount of enzyme that generates 1 pmol of product in one hour under the conditions described.
Assays are performed as for aldosterone synthase except for the use of 150 units of CYP11B1, 11-deoxycortisol as substrate and cortisol measured as product.

For another assay, the target named is T1, CYP19A1 (Homo sapiens, UniProt P11511).
T1 sequence (P11511 1-503): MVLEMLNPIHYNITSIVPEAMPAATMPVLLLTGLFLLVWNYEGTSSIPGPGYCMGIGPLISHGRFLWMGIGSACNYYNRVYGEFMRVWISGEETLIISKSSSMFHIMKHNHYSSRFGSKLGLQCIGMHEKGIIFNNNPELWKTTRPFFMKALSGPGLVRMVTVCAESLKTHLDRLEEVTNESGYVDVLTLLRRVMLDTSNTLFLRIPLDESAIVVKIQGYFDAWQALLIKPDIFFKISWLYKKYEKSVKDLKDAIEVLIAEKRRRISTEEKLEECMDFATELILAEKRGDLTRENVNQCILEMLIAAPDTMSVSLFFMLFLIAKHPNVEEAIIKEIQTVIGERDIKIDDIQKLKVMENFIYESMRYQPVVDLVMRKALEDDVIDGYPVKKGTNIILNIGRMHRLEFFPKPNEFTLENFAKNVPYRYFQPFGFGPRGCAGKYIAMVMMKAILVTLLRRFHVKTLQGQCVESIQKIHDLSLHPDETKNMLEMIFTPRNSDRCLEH
As to the kind of experiment: Inhibition of CYP19A1 (Kragie et al.). The class given is biochemical.

For assay [2], the target named is T2, aldosterone synthase (CYP11B2) (Macaca fascicularis, UniProt A0A2K5UPL9).
T2 construct: employ cynomolgus adrenal gland mitochondria as the source of aldosterone synthase (CYP11B2); from tissue; host or cells: cynomolgus monkey adrenal gland mitochondria
T2 sequence (A0A2K5UPL9 1-503): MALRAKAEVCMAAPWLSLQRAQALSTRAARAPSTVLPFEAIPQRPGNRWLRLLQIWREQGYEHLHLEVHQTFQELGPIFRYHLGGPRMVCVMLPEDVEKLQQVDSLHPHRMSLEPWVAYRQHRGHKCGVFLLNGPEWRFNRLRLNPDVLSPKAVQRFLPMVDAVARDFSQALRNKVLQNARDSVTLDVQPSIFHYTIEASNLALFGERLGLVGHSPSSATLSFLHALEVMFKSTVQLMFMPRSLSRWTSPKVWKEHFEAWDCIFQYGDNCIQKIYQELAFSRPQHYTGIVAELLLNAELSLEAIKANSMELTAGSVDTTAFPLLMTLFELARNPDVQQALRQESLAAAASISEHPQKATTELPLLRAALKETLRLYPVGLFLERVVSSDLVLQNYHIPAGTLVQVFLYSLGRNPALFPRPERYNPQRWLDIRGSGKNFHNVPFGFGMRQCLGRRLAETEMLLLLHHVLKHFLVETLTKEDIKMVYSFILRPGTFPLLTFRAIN
In words: Inhibition of aldosterone synthase, cynomolgus adrenal mitochondria, aldosterone quantified by mass spectrometry. It counts as biochemical, cynomolgus monkey. As to conditions: 2 μM corticosterone, 90 minutes at 37° C. The procedure: The aldosterone synthase and cortisol synthase inhibition assays employ cynomolgus adrenal gland mitochondria as the source of aldosterone synthase (CYP11B2) and cortisol synthase (CYP11B1). […] One unit of CYP11B2 and CYP11B1 activity in these preparations is defined as the amount of enzyme that generates 1 pmol of product in one hour under the conditions described.
The compounds of the invention may be evaluated for aldosterone synthase inhibition by the following assay:
Assays are performed in 96-well format in a final volume of 60 microL/well, containing 100 mM potassium phosphate, pH 7.4, 1% (v/v) DMSO, and additionally, 2 μM of corticosterone and 50 units of CYP11B2 activity. Reactions are started by the addition of NADPH to 1 mM and allowed to proceed for 90 minutes at 37° C. Reactions are terminated by the addition of 60 μL of MeCN containing an internal standard for mass spectrometry. One hundred microliters are then transferred to a glass filter plate and centrifuged at 570×g for 5 minutes and the filtrate is collected. Reaction product aldosterone is quantified by mass spectrometry. To determine the assay blank value (0% activity), NADPH is omitted from some reactions.
(§1) Dose dependent inhibition is quantified by the inclusion of compound at various concentrations. Maximum activity (100%) is defined by reactions containing NADPH, but without compound.

The target in the next assay is T3, rhCYP17A1 (Homo sapiens, UniProt P05093).
T3 construct: purchased Cypex
T3 sequence (P05093 1-508): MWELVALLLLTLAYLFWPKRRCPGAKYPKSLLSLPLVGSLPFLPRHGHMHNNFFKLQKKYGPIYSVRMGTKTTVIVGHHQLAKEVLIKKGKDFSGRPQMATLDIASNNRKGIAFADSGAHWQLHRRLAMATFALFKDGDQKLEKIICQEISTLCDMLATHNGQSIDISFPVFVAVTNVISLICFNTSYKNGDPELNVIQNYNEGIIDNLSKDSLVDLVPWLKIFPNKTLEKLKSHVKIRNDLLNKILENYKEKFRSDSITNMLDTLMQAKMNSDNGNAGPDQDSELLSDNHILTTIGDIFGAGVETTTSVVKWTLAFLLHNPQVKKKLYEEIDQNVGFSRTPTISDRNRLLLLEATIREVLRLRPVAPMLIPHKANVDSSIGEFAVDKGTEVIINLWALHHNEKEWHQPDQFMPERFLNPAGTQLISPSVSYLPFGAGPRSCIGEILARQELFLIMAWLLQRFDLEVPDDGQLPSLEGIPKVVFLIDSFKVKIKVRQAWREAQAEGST
In words: Inhibition of CYP17A1, progesterone to 17-α-hydroxyprogesterone, mass spectrometry. The class given is biochemical. As for the experimental part: Compounds of the invention may also be evaluated for inhibition of CYP17A1 via the following assay:
Reactions are started by the addition of NADPH to 1 mM and allowed to proceed for 15 minutes at 37° C. Reactions are terminated by the addition of 40 μL of MeCN containing an internal standard for mass spectrometry. The plates are centrifuged at 3000 rpm for 5 min and the reaction product 17-α-hydroxyprogesterone is quantified by mass spectrometry. To determine the assay blank value (0% activity), NADPH is omitted from some reactions.
as §1

[3] abbreviates: Cortisol Inhibition IC50, cynomolgus adrenal mitochondria.
Where [4] appears, read: cynomolgus adrenal mitochondria, read-out: Cortisol Inhibition IC50.
Where [5] appears, read: rhCYP17A1, 150 nM progesterone, 15 minutes at 37° C., read-out: CYP17A1 IC50.

The structures appear in SMILES notation. Read-outs that look alike come from different tables or passages of the source. A value given as a limit tells only on which side of the number the result lay.

By IC50 is commonly meant the concentration that gives 50% inhibition.

Turning to `N#Cc1ccc(-n2cnc3c2C(=O)OC(CO)C3)cc1Cl` (single isomer, unassigned) [Compound 33A, 2-chloro-4-[6-(hydroxymethyl)-4-oxo-3H,4H,6H,7H-pyrano[3,4-d]imidazol-3-yl]benzonitrile], the IC50 was 45 µM in assay [1] (setting [3]), greater than 20 µM at CYP19A1, 89 nM in assay [2] and greater than 20 µM against rhCYP17A1.
For the compound `CN1C(=O)CCc2cc(-n3cnc4c3C(=O)OC(C)(C)C4)ccc21` [Compound 5, 6-{6,6-dimethyl-4-oxo-3H,4H,6H,7H-pyrano[3,4-d]imidazol-3-yl}-1-methyl-1,2,3,4-tetrahydroquinolin-2-one], the IC50 in assay [1] (setting [4]) was 40 µM; at CYP19A1 (read-out: CYP19A1 IC50), greater than 20 µM; in assay [2], 110 nM; on rhCYP17A1 (setting [5]), greater than 20 µM.
Regarding `CC1(C)Cc2ncn(-c3ccc(C#N)cc3F)c2C(=O)O1` [Compound 19, 4-{6,6-dimethyl-4-oxo-3H,4H,6H,7H-pyrano[3,4-d]imidazol-3-yl}-3-fluorobenzonitrile], the IC50 is 7.1 µM in assay [1] (setting [4]), greater than 20 µM at CYP19A1 (read-out: CYP19A1 IC50), 46 nM in assay [2] and greater than 20 µM at rhCYP17A1 (setting [5]).
On to `CC1(CO)Cc2ncn(-c3cccc(Cl)c3F)c2C(=O)O1` (single isomer, unassigned) [Compound 35A, 3-(3-chloro-2-fluorophenyl)-6-(hydroxymethyl)-6-methyl-3H,4H,6H,7H-pyrano[3,4-d]imidazol-4-one], for which the IC50 is 24 µM in assay [1] (setting [4]), greater than 20 µM on CYP19A1 (read-out: CYP19A1 IC50), 70 nM in assay [2] and 15 µM on rhCYP17A1 (setting [5]).
For `Cc1cc(-n2cnc3c2C(=O)OC(C)(CO)C3)ccc1C#N` (single isomer, unassigned) [Compound 39B, 4-[6-(hydroxymethyl)-6-methyl-4-oxo-3H,4H,6H,7H-pyrano[3,4-d]imidazol-3-yl]-2-methylbenzonitrile], the IC50 in assay [1] (setting [3]) was 8.6 µM; at CYP19A1 (read-out: CYP19A1 IC50), greater than 20 µM; in assay [2], 13 nM; at rhCYP17A1 (setting [5]) it was greater than 20 µM.
`CC1(C)Cc2ncn(-c3ccc(Cl)cc3)c2C(=O)O1` [Compound 9, 3-(4-chlorophenyl)-6,6-dimethyl-3H,4H,6H,7H-pyrano[3,4-d]imidazol-4-one]: the IC50 in assay [1] (setting [4]) was 2.4 µM; on CYP19A1 (read-out: CYP19A1 IC50), greater than 20 µM; in assay [2], 32 nM; at rhCYP17A1 (setting [5]), greater than 20 µM.
On to `Cc1cc(-n2cnc3c2C(=O)OC(C)(C)C3)ccc1C#N` [Compound 11, 4-{6,6-dimethyl-4-oxo-3H,4H,6H,7H-pyrano[3,4-d]imidazol-3-yl}-2-methylbenzonitrile], for which the IC50 is 0.59 µM in assay [1] (setting [4]), greater than 20 µM at CYP19A1 (read-out: CYP19A1 IC50), 4.9 nM in assay [2] and greater than 20 µM on rhCYP17A1 (setting [5]).
With `CC1Cc2ncn(-c3ccc(C#N)cc3)c2C(=O)O1` (single isomer, unassigned) [Compound 16A, 4[6-methyl-4-oxo-3H,4H,6H,7H-pyrano[3,4-d]imidazol-3-yl]benzonitrile], the IC50 in assay [1] (setting [4]) is 26 µM; at CYP19A1 (read-out: CYP19A1 IC50), greater than 20 µM; in assay [2] it was 100 nM; on rhCYP17A1 (setting [5]), greater than 20 µM.
As to `C[C@]1(CO)Cc2ncn(-c3ccc(C#N)c(Cl)c3)c2C(=O)O1` (single isomer, unassigned) [Compound 29A], the IC50 was 4.7 µM in assay [1] (setting [3]), greater than 20 µM at CYP19A1 (read-out: CYP19A1 IC50), 16 nM in assay [2] and greater than 20 µM at rhCYP17A1 (setting [5]).
Consider `CC1Cc2ncn(-c3ccc(C#N)cc3)c2C(=O)O1` (single isomer, unassigned) [Compound 16B, 4[6-methyl-4-oxo-3H,4H,6H,7H-pyrano[3,4-d]imidazol-3-yl]benzonitrile], for which the IC50 in assay [1] (setting [4]) was 35 µM; on CYP19A1 (read-out: CYP19A1 IC50), greater than 20 µM; in assay [2], 160 nM; on rhCYP17A1 (setting [5]) it was greater than 20 µM.
On to `Cc1cc(C#N)ccc1-n1cnc2c1C(=O)OC(C)(CO)C2` (single isomer, unassigned) [Compound 31A, 4-[6-(hydroxymethyl)-6-methyl-4-oxo-3H,4H,6H,7H-pyrano[3,4-d]imidazol-3-yl]-3-methylbenzonitrile], for which the half-inhibitory concentration (IC50) is 3.6 µM in assay [1] (setting [4]), greater than 20 µM at CYP19A1 (read-out: CYP19A1 IC50), 23 nM in assay [2] and greater than 20 µM on rhCYP17A1 (setting [5]).
Regarding `Cc1cc(-n2cnc3c2C(=O)OC(C)(CO)C3)ccc1C#N` (single isomer, unassigned) [Compound 39A, 4-[6-(hydroxymethyl)-6-methyl-4-oxo-3H,4H,6H,7H-pyrano[3,4-d]imidazol-3-yl]-2-methylbenzonitrile], the IC50 was 1.4 µM in assay [1] (setting [3]), greater than 20 µM on CYP19A1 (read-out: CYP19A1 IC50), 11 nM in assay [2] and greater than 20 µM at rhCYP17A1 (setting [5]).
In the case of `CC1(C=O)Cc2ncn(-c3ccc(C#N)c(Cl)c3)c2C(=O)O1` (centres unmarked) [Compound 43, 2-Chloro-4-(6-formyl-6-methyl-4-oxo-6,7-dihydro-4H-pyrano[3,4-d]imidazol-3-yl)-benzonitrile], the IC50 in assay [1] (setting [3]) was greater than 30 µM; at CYP19A1 (read-out: CYP19A1 IC50), greater than 20 µM; in assay [2], 540 nM; at rhCYP17A1 (setting [5]) it was greater than 20 µM.
For `C[C@@]1(CO)Cc2ncn(-c3ccc(C#N)c(Cl)c3)c2C(=O)O1` (single isomer, unassigned) [Compound 29B], the IC50 in assay [1] (setting [3]) is 23 µM; at CYP19A1 (read-out: CYP19A1 IC50), greater than 20 µM; in assay [2], 48 nM; on rhCYP17A1 (setting [5]) it was greater than 20 µM.

The values are drawn from patent US9334285B2, “Aldosterone synthase inhibitors” (Boehringer Ingelheim International GmbH, priority 2014, dated 2016).
